Activity calls are given as the source filed them. No cut-off for these calls is given here.
Legend:
[1] = molecular target: T1, Dihydrofolate reductase (Homo sapiens, UniProt P00374); experiment: Inhibition of human DHFR assessed as conversion of dihydrofolic acid to tetrahydrfolic acid by enzyme immunoassay in presence of NADPH
T1 sequence (P00374 whole entry): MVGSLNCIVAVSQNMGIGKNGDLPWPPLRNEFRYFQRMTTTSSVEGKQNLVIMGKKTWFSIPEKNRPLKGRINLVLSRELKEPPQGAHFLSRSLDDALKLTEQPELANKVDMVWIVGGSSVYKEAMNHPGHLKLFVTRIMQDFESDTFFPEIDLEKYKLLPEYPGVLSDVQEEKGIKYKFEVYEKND

[2] = test system: HOP-62; details: Homo sapiens, 10^-5 M
Description: Cytotoxicity against human HOP62 cells assessed as tumor growth inhibition at 10^-5 M after 48 hrs by sulforhodamine B assay

[3] = test system: OVCAR-3; details: Homo sapiens, 10^-5 M
Description: Cytotoxicity against human OVCAR3 cells assessed as tumor growth inhibition at 10^-5 M after 48 hrs by sulforhodamine B assay

[4] = test system: MDA-MB-468; details: Homo sapiens, 10^-5 M
Description: Cytotoxicity against human MDA-MB-468 cells assessed as tumor growth inhibition at 10^-5 M after 48 hrs by sulforhodamine B assay

[5] = test system: UACC-257; details: Homo sapiens, 10^-5 M
Description: Cytotoxicity against human UACC257 cells assessed as tumor growth inhibition at 10^-5 M after 48 hrs by sulforhodamine B assay

[6] = test system: A549; details: Homo sapiens, 10^-5 M
Description: Cytotoxicity against human A549 cells assessed as tumor growth inhibition at 10^-5 M after 48 hrs by sulforhodamine B assay

[7] = test system: NCI-H23; details: Homo sapiens, 10^-5 M
Description: Cytotoxicity against human NCI-H23 cells assessed as tumor growth inhibition at 10^-5 M after 48 hrs by sulforhodamine B assay

[8] = test system: HCC 2998; details: Homo sapiens, 10^-5 M
Description: Cytotoxicity against human HCC2998 cells assessed as tumor growth inhibition at 10^-5 M after 48 hrs by sulforhodamine B assay

[9] = test system: U-251; details: Homo sapiens, 10^-5 M
Description: Cytotoxicity against human U251 cells assessed as tumor growth inhibition at 10^-5 M after 48 hrs by sulforhodamine B assay

[10] = test system: NCI/ADR-RES; details: Homo sapiens, 10^-5 M
Description: Cytotoxicity against human NCI-ADR-RES cells assessed as tumor growth inhibition at 10^-5 M after 48 hrs by sulforhodamine B assay

[11] = test system: IGROV-1; details: Homo sapiens, 10^-5 M
Description: Cytotoxicity against human IGROV1 cells assessed as tumor growth inhibition at 10^-5 M after 48 hrs by sulforhodamine B assay

[12] = test system: NCI-H226; details: Homo sapiens, 10^-5 M
Description: Cytotoxicity against human NCI-H226 cells assessed as tumor growth inhibition at 10^-5 M after 48 hrs by sulforhodamine B assay

[13] = test system: UO-31; details: Homo sapiens, 10^-5 M
Description: Cytotoxicity against human UO31 cells assessed as tumor growth inhibition at 10^-5 M after 48 hrs by sulforhodamine B assay

[14] = test system: HT-29; details: Homo sapiens, 10^-5 M
Description: Cytotoxicity against human HT-29 cells assessed as tumor growth inhibition at 10^-5 M after 48 hrs by sulforhodamine B assay

[15] = test system: HOP-92; details: Homo sapiens, 10^-5 M
Description: Cytotoxicity against human HOP92 cells assessed as tumor growth inhibition at 10^-5 M after 48 hrs by sulforhodamine B assay

[16] = test system: CAKI-1; details: Homo sapiens, 10^-5 M
Description: Cytotoxicity against human Caki1 cells assessed as tumor growth inhibition at 10^-5 M after 48 hrs by sulforhodamine B assay

[17] = test system: OVCAR-8; details: Homo sapiens, 10^-5 M
Description: Cytotoxicity against human OVCAR8 cells assessed as tumor growth inhibition at 10^-5 M after 48 hrs by sulforhodamine B assay

[18] = test system: SW-620; details: Homo sapiens, 10^-5 M
Description: Cytotoxicity against human SW620 cells assessed as tumor growth inhibition at 10^-5 M after 48 hrs by sulforhodamine B assay

[19] = test system: SK-MEL-2; details: Homo sapiens, 10^-5 M
Description: Cytotoxicity against human SK-MEL-2 cells assessed as tumor growth inhibition at 10^-5 M after 48 hrs by sulforhodamine B assay

[20] = test system: SK-MEL-28; details: Homo sapiens, 10^-5 M
Description: Cytotoxicity against human SK-MEL-28 cells assessed as tumor growth inhibition at 10^-5 M after 48 hrs by sulforhodamine B assay

[21] = test system: MDA-MB-435; details: Homo sapiens, 10^-5 M
Description: Cytotoxicity against human MDA-MB-435 cells assessed as tumor growth inhibition at 10^-5 M after 48 hrs by sulforhodamine B assay

[22] = test system: MOLT-4; details: Homo sapiens, 10^-5 M
Description: Cytotoxicity against human MOLT4 cells assessed as tumor growth inhibition at 10^-5 M after 48 hrs by sulforhodamine B assay

[23] = test system: ACHN; details: Homo sapiens, 10^-5 M
Description: Cytotoxicity against human ACHN cells assessed as tumor growth inhibition at 10^-5 M after 48 hrs by sulforhodamine B assay

[24] = test system: MDA-MB-231; details: Homo sapiens, 10^-5 M
Description: Cytotoxicity against human MDA-MB-231 cells assessed as tumor growth inhibition at 10^-5 M after 48 hrs by sulforhodamine B assay

[25] = test system: Hs-578T; details: Homo sapiens, 10^-5 M
Description: Cytotoxicity against human Hs 578T cells assessed as tumor growth inhibition at 10^-5 M after 48 hrs by sulforhodamine B assay

[26] = test system: HCT-15; details: Homo sapiens, 10^-5 M
Description: Cytotoxicity against human HCT15 cells assessed as tumor growth inhibition at 10^-5 M after 48 hrs by sulforhodamine B assay

[27] = test system: BT-549; details: Homo sapiens, 10^-5 M
Description: Cytotoxicity against human BT549 cells assessed as tumor growth inhibition at 10^-5 M after 48 hrs by sulforhodamine B assay

[28] = test system: NCI-H522; details: Homo sapiens, 10^-5 M
Description: Cytotoxicity against human NCI-H522 cells assessed as tumor growth inhibition at 10^-5 M after 48 hrs by sulforhodamine B assay

[29] = test system: OVCAR-4; details: Homo sapiens, 10'-5 M
Description: Cytotoxicity against human OVCAR4 cells assessed as tumor growth inhibition at 10^-5 M after 48 hrs by sulforhodamine B assay

[30] = test system: EKVX; details: Homo sapiens, 10^-5 M
Description: Cytotoxicity against human EKVX cells assessed as tumor growth inhibition at 10^-5 M after 48 hrs by sulforhodamine B assay

[31] = test system: Malme-3M; details: Homo sapiens, 10^-5 M
Description: Cytotoxicity against human MALME-3M cells assessed as tumor growth inhibition at 10^-5 M after 48 hrs by sulforhodamine B assay

[32] = test system: COLO 205; details: Homo sapiens, 10^-5 M
Description: Cytotoxicity against human COLO205 cells assessed as tumor growth inhibition at 10^-5 M after 48 hrs by sulforhodamine B assay

[33] = test system: HCT-116; details: Homo sapiens, 10^-5 M
Description: Cytotoxicity against human HCT116 cells assessed as tumor growth inhibition at 10^-5 M after 48 hrs by sulforhodamine B assay

[34] = test system: SN12C; details: Homo sapiens, 10^-5 M
Description: Cytotoxicity against human SN12C cells assessed as tumor growth inhibition at 10^-5 M after 48 hrs by sulforhodamine B assay

[35] = test system: SK-OV-3; details: Homo sapiens, 10^-5 M
Description: Cytotoxicity against human SKOV3 cells assessed as tumor growth inhibition at 10^-5 M after 48 hrs by sulforhodamine B assay

[36] = test system: SR; details: Homo sapiens, 10^-5 M
Description: Cytotoxicity against human SR cells assessed as tumor growth inhibition at 10^-5 M after 48 hrs by sulforhodamine B assay

[37] = test system: OVCAR-5; details: Homo sapiens, 10^-5 M
Description: Cytotoxicity against human OVCAR5 cells assessed as tumor growth inhibition at 10^-5 M after 48 hrs by sulforhodamine B assay

[38] = test system: SF-268; details: Homo sapiens, 10^-5 M
Description: Cytotoxicity against human SF268 cells assessed as tumor growth inhibition at 10^-5 M after 48 hrs by sulforhodamine B assay

[39] = test system: SF-295; details: Homo sapiens, 10^-5 M
Description: Cytotoxicity against human SF295 cells assessed as tumor growth inhibition at 10^-5 M after 48 hrs by sulforhodamine B assay

[40] = test system: LOX IMVI; details: Homo sapiens, 10^-5 M
Description: Cytotoxicity against human LOXIMVI cells assessed as tumor growth inhibition at 10^-5 M after 48 hrs by sulforhodamine B assay

[41] = test system: HL-60(TB); details: Homo sapiens, 10^-5 M
Description: Cytotoxicity against human HL-60(TB) cells assessed as tumor growth inhibition at 10^-5 M after 48 hrs by sulforhodamine B assay

[42] = test system: 786-0; details: Homo sapiens, 10^-5 M
Description: Cytotoxicity against human 786-0 cells assessed as tumor growth inhibition at 10^-5 M after 48 hrs by sulforhodamine B assay

[43] = test system: T47D; details: Homo sapiens, 10^-5 M
Description: Cytotoxicity against human T47D cells assessed as tumor growth inhibition at 10^-5 M after 48 hrs by sulforhodamine B assay

[44] = test system: CCRF-CEM; details: Homo sapiens, 10^-5 M
Description: Cytotoxicity against human CCRF-CEM cells assessed as tumor growth inhibition at 10^-5 M after 48 hrs by sulforhodamine B assay

[45] = test system: SK-MEL-5; details: Homo sapiens, 10^-5 M
Description: Cytotoxicity against human SK-MEL-5 cells assessed as tumor growth inhibition at 10^-5 M after 48 hrs by sulforhodamine B assay

[46] = test system: RXF 393; details: Homo sapiens, 10^-5 M
Description: Cytotoxicity against human RXF393 cells assessed as tumor growth inhibition at 10^-5 M after 48 hrs by sulforhodamine B assay

[47] = test system: NCI-H460; details: Homo sapiens, 10^-5 M
Description: Cytotoxicity against human NCI-H460 cells assessed as tumor growth inhibition at 10^-5 M after 48 hrs by sulforhodamine B assay

[48] = test system: SF-539; details: Homo sapiens, 10^-5 M
Description: Cytotoxicity against human SF539 cells assessed as tumor growth inhibition at 10^-5 M after 48 hrs by sulforhodamine B assay

[49] = test system: K562; details: Homo sapiens, 10^-5 M
Description: Cytotoxicity against human K562 cells assessed as tumor growth inhibition at 10^-5 M after 48 hrs by sulforhodamine B assay

[50] = test system: PC-3; details: Homo sapiens, 10^-5 M
Description: Cytotoxicity against human PC3 cells assessed as tumor growth inhibition at 10^-5 M after 48 hrs by sulforhodamine B assay

[51] = test system: TK-10; details: Homo sapiens, 10^-5 M
Description: Cytotoxicity against human TK10 cells assessed as tumor growth inhibition at 10^-5 M after 48 hrs by sulforhodamine B assay

[52] = test system: KM12; details: Homo sapiens, 10^-5 M
Description: Cytotoxicity against human KM12 cells assessed as tumor growth inhibition at 10^-5 M after 48 hrs by sulforhodamine B assay

[53] = test system: M14; details: Homo sapiens, 10^-5 M
Description: Cytotoxicity against human M14 cells assessed as tumor growth inhibition at 10^-5 M after 48 hrs by sulforhodamine B assay

[54] = test system: SNB-19; details: Homo sapiens, 10^-5 M
Description: Cytotoxicity against human SNB19 cells assessed as tumor growth inhibition at 10^-5 M after 48 hrs by sulforhodamine B assay

[55] = test system: UACC-62; details: Homo sapiens, 10^-5 M
Description: Cytotoxicity against human UACC62 cells assessed as tumor growth inhibition at 10^-5 M after 48 hrs by sulforhodamine B assay

[56] = test system: MCF7; details: Homo sapiens, 10^-5 M
Description: Cytotoxicity against human MCF7 cells assessed as tumor growth inhibition at 10^-5 M after 48 hrs by sulforhodamine B assay

[57] = test system: RPMI-8226; details: Homo sapiens, 10^-5 M
Description: Cytotoxicity against human RPMI8226 cells assessed as tumor growth inhibition at 10^-5 M after 48 hrs by sulforhodamine B assay

[58] = test system: SNB-75; details: Homo sapiens, 10^-5 M
Description: Cytotoxicity against human SNB75 cells assessed as tumor growth inhibition at 10^-5 M after 48 hrs by sulforhodamine B assay

[59] = test system: DU-145; details: Homo sapiens, 10^-5 M
Description: Cytotoxicity against human DU145 cells assessed as tumor growth inhibition at 10^-5 M after 48 hrs by sulforhodamine B assay

[60] = test system: A498; details: Homo sapiens, 10^-5 M
Description: Cytotoxicity against human A498 cells assessed as tumor growth inhibition at 10^-5 M after 48 hrs by sulforhodamine B assay

Compound `O=C1Nc2ccc([N+](=O)[O-])cc2/C1=C/c1cn(CC(O)Cn2cc(/C=C3\C(=O)Nc4ccc([N+](=O)[O-])cc43)c3ccccc32)c2ccccc12` (stereo unspecified) has an IC50 [1] of 0.7 µM.
In the case of `COc1cc(Cc2cnc(N)nc2N)cc(OC)c1OC`, the TGI [2] is reported as “inactive”, the TGI [3] is reported as “inactive” and the TGI [4] is reported as “inactive”. The TGI [5] was “inactive”, the TGI [6] was “inactive” and the TGI [7] was “inactive”. For the same compound, the TGI [8] was “inactive”, the TGI [9] was “inactive” and the TGI [10] was “inactive”. For the same compound, the TGI [11] was “inactive”, the TGI [12] was “inactive” and the TGI [13] was “inactive”. For the same compound, the TGI [14] was “inactive”, the TGI [15] was “inactive” and the TGI [16] was “inactive”. For the same compound, the TGI [17] was “inactive”, the TGI [18] was “inactive” and the TGI [19] was “inactive”. The TGI [20] was “inactive”, the TGI [21] was “inactive” and the TGI [22] was “inactive”. For the same compound, the TGI [23] was “inactive”, the TGI [24] was “inactive” and the TGI [25] was “inactive”. The TGI [26] was “inactive”, the TGI [27] was “inactive” and the TGI [28] was “inactive”. For the same compound, the TGI [29] was “inactive”, the TGI [30] was “inactive” and the TGI [31] was “inactive”. The TGI [32] was “inactive”, the TGI [33] was “inactive” and the TGI [34] was “inactive”. The TGI [35] was “inactive”, the TGI [36] was “inactive” and the TGI [37] was “inactive”. For the same compound, the TGI [38] was “inactive”, the TGI [39] was “inactive” and the TGI [40] was “inactive”. For the same compound, the TGI [41] was “inactive”, the TGI [42] was “inactive” and the TGI [43] was “inactive”. The TGI [44] was “inactive”, the TGI [45] was “inactive” and the TGI [46] was “inactive”. The TGI [47] was “inactive”, the TGI [48] was “inactive” and the TGI [49] was “inactive”. The TGI [50] was “inactive”, the TGI [51] was “inactive” and the TGI [52] was “inactive”. The TGI [53] was “inactive”, the TGI [54] was “inactive” and the TGI [55] was “inactive”. For the same compound, the TGI [56] was “inactive”, the TGI [57] was “inactive” and the TGI [58] was “inactive”. The TGI [59] was “inactive” and the TGI [60] was “inactive”.
With `O=C1NC(=S)NC(=O)C1=Cc1cn(CC(O)Cn2cc(C=C3C(=O)NC(=S)NC3=O)c3ccccc32)c2ccccc12` the IC50 [1] was 7 µM.

Source: ChEMBL document CHEMBL3785084, “Rational modification of the lead molecule: Enhancement in the anticancer and dihydrofolate reductase inhibitory activity” (Bioorg Med Chem Lett, 2016)
